Source: patent publication US20260325654A1, “METHODS AND COMPOSITIONS FOR TARGETED PROTEIN DEGRADATION” (Ranok Therapeutics (Hangzhou) Co. Ltd., priority 2023, published 2026)
Counter-ions that a name gives are not always drawn.

How the values were obtained:
Type in all cases: cell-based, human
AGS = assay: CellTiter-Glo Reagent cancer cell line proliferation assay, AGS; settings: KRAS(G12D) heterozygous
Description: (§1) The following cancer cell lines were employed: • AsPC-1 human pancreatic adenocarcinoma, homozygous KRAS(G12D), (ATCC, #CRL-1682); A-427 human lung carcinoma, heterozygous KRAS(G12D), (ATCC, #HTB-53); AGS human gastric adenocarcinoma, heterozygous KRAS(G12D), (ATCC, #CRL-1739); GP2D human colon adenocarcinoma, heterozygous KRAS(G12D), (Sigma Aldrich, 95090714); SW1990 human pancreatic adenocarcinoma, homozygous KRAS(G12D), (ATCC, #CRL2172); LU65A human lung giant cell carcinoma, heterozygous KRAS(G12C), (JCRB Cell Bank, #JCRB0054); NCIH727 human lung carcinoid, heterozygous KRAS(G12V), (ATCC, #CRL-5815); MKN1 human gastric adenosquamous carcinoma KRAS (wt), (JCRB Cell Bank, #JCRB0252). Cell lines were cultured according to ATCC, JCRB and Sigma Aldrich recommendations.
(§2) Cells were plated in 96-well tissue culture plates at 4,000 cells/well and incubated at 37° C./5% CO2 for 24 hr in 100 μl of media. 3-fold serial dilutions of each test compound were prepared ranging from 20 μM to 1.02 nM. Cells were then treated with test compounds at various concentrations with a final concentration of 0.5% DMSO/well, and then incubated at 37° C./5% CO2 for 24 hr. 100 μl of CellTiter-Glo® Reagent (Promega Corporation, Madison, WI) was added to each well and processed according manufacturer's protocol. Results were analyzed and IC50-values were calculated in GraphPad 7 software.

NCIH727 = assay: CellTiter-Glo Reagent cancer cell line proliferation assay, NCIH727; settings: NCIH727, KRAS(G12V) heterozygous
Description: as §1, §2

LU65A = assay: CellTiter-Glo Reagent cancer cell line proliferation assay, LU65A; settings: KRAS(G12C) heterozygous
Description: as §1, §2

| SMILES | IC50 (AGS; Homo sapiens, 24 h) [µM] | IC50 (NCIH727; Homo sapiens, NCI-H727, 24 h) [µM] | IC50 (LU65A; Homo sapiens, 24 h) [µM] | IC50 (AGS; 24 hr) [µM] | IC50 (NCIH727; 24 hr) [µM] | IC50 (LU65A; 24 hr) [µM] |
| --- | --- | --- | --- | --- | --- | --- |
| C#Cc1c(F)ccc2cc(O)cc(-c3nc(OC)c4c(N5CC6CCC(C5)N6C(=O)CC(C)C#N)nc(OCC5(CN6CCN(C[C@H]7CCN(c8ccc9c(c8)CN(C8CCC(=O)NC8=O)C9=O)C[C@@H]7F)CC6)CC5)nc4c3F)c12 (stereo partly shown) [Compound 154] | < 0.1 | < 0.1 | < 0.1 |  |  |  |
| C#Cc1c(F)ccc2cc(O)cc(-c3ncc4c(N5CC6CCC(C5)N6C(=O)CC(C)C#N)nc(OCC5(CN(C)Cc6ccc(C7CN(c8ccc9c(c8)CN(C8CCC(=O)NC8=O)C9=O)C7)cc6)CC5)nc4c3F)c12 (stereo not shown) [Compound 132] | < 0.1 | < 0.1 | < 0.1 |  |  |  |
| C#Cc1c(F)ccc2cc(O)cc(-c3ncc4c(N5CCCOC6CC65)nc(OCC5(CN6CCN(CC7CCN(c8ccc9c(c8)CN(C8CCC(=O)NC8=O)C9=O)CC7)CC6)CC5)nc4c3F)c12 (stereo not shown) [Compound 139] | > 1 | > 1 | > 1 |  |  |  |
| C#Cc1c(F)ccc2cc(O)cc(-c3nc(OC)c4c(N5CC6CCC(C5)N6C(=O)C(C#N)CC#N)nc(OCC5(CN6CCN(CC7CCN(c8ccc9c(c8)CN(C8CCC(=O)NC8=O)C9=O)CC7)CC6)CC5)nc4c3F)c12 (stereo not shown) [Compound 126] | < 0.1 | < 0.1 | < 0.1 |  |  |  |
| C#Cc1c(F)ccc2cc(O)cc(-c3ncc4c(N5CC6CCC(C5)N6C(=O)CC(C)C#N)nc(OCC5(CN6CCN(CC7CCN(c8ccc9c(c8)CN(C8CCC(=O)N(C)C8=O)C9=O)CC7)CC6)CC5)nc4c3F)c12 (stereo not shown) [Compound 130] | 0.1 to 1 | 0.1 to 1 | 0.1 to 1 |  |  |  |
| C#Cc1c(F)ccc2cc(O)cc(-c3nc(OC)c4c(N5CC6CCC(C5)N6C(=O)CC(C)C#N)nc(OCC5CCCN(CC6CCN(c7ccc8c(c7)CN(C7CCC(=O)NC7=O)C8=O)CC6)C5)nc4c3F)c12 (stereo not shown) [Compound 146] | < 0.1 | < 0.1 | < 0.1 |  |  |  |
| C#Cc1c(F)ccc2cc(O)cc(-c3nc(OC)c4c(N5CCCOC6CC65)nc(OCC5(CN6CCN(CC7CCN(c8ccc9c(c8)CN(C8CCC(=O)NC8=O)C9=O)CC7)CC6)CC5)nc4c3F)c12 (stereo not shown) [Compound 157] | < 0.1 | < 0.1 | < 0.1 |  |  |  |
| C#Cc1c(F)ccc2cc(O)cc(-c3nc4c5c(nc(OCC6(CN7CCN(CC8CCN(c9ccc%10c(c9)CN(C9CCC(=O)NC9=O)C%10=O)CC8)CC7)CC6)nc5c3F)N(CC(F)F)[C@@H](C)CO4)c12 (stereo partly shown) [Compound 158] | < 0.1 | < 0.1 | < 0.1 |  |  |  |
| C#Cc1c(F)ccc2cc(O)cc(-c3nc(OC)c4c(N5CC6CCC(C5)N6C(=O)CC(C)C#N)nc(OCC5(CNC6CCC(=O)NC6=O)CC5)nc4c3F)c12 (stereo not shown) [Compound 145] | < 0.1 | < 0.1 | < 0.1 |  |  |  |
| C#Cc1c(F)ccc2cc(O)cc(-c3nc(OC)c4c(N5CC6CCC(C5)N6C(=O)C[C@@H](C)C#N)nc(OCC5(CN6CCN(CC7CCN(c8ccc9c(N%10CCC(=O)NC%10=O)nn(C)c9c8)CC7)CC6)CC5)nc4c3F)c12 [Compound 160] | < 0.1 | < 0.1 | < 0.1 |  |  |  |
| C#Cc1c(F)ccc2cc(O)cc(-c3nc(OC)c4c(N5CC6CCC(C5)N6C(=O)CC(C)C#N)nc(OCC5(CN6CCN(CC7CCN(c8ccc9c(c8)CN(C8CCC(=O)NC8=O)C9=O)CC7)CC6)CC5)nc4c3F)c12 (stereo not shown) [Compound 135] | < 0.1 | < 0.1 | < 0.1 |  |  |  |
| C#Cc1c(F)ccc2cc(O)cc(-c3ncc4c(N5CC6CCC(C5)N6C(=O)Cn5cc(COCCOCCOCCNc6ccc7c(c6)CN(C6CCC(=O)NC6=O)C7=O)nn5)nc(OCC56CCCN5C[C@@H](F)C6)nc4c3F)c12 (stereo partly shown) [Compound 141] | < 0.1 | < 0.1 | < 0.1 |  |  |  |
| C#Cc1c(F)ccc2cc(O)cc(-c3nc(OC)c4c(N5CCCO[C@@H]6C[C@@H]65)nc(OCC5(CN6CCN(CC7CCN(c8ccc9c(c8)CN([C@H]8CCC(=O)NC8=O)C9=O)CC7)CC6)CC5)nc4c3F)c12 [Compound 165] | < 0.1 | < 0.1 | < 0.1 |  |  |  |
| C#Cc1c(F)ccc2cc(O)cc(-c3ncc4c(N5CC6CCC(C5)N6C(=O)CC(C)C#N)nc(OCC5(CN6CCN(CC7CCN(c8ccc9c(c8)CN(C8CCC(=O)NC8=O)C9=O)CC7)CC6)CC5)nc4c3F)c12 (stereo not shown) [Compound 129] | < 0.1 | < 0.1 | < 0.1 |  |  |  |
| C#Cc1c(F)ccc2cc(O)cc(-c3ncc4c(N5CC6CCC(C5)N6C(=O)CC(C)C#N)nc(OCC5(CN6CC7CC7C6)CC5)nc4c3OCc3ccc(-c4cn([C@H](C(=O)N5C[C@H](O)C[C@H]5C(=O)N[C@@H](CO)c5ccc(-c6ccnn6CC)cc5)C(C)C)nn4)cc3)c12 (stereo partly shown) [Compound 140] |  |  |  | < 0.1 | < 0.1 | < 0.1 |
| C#Cc1c(F)ccc2cc(O)cc(-c3ncc4c(N5CCCOCC5)nc(OCC5(CN6CCN(CC7CCN(c8ccc9c(c8)CN(C8CCC(=O)NC8=O)C9=O)CC7)CC6)CC5)nc4c3F)c12 (stereo not shown) [Compound 134] | < 0.1 | < 0.1 | < 0.1 |  |  |  |
| N#Cc1c(N)sc2c1C1(CCC2)CCCc2c(-c3nc(Cl)cc(OCC4(CN5CCN(CC6CCN(c7ccc8c(c7)CN(C7CCC(=O)NC7=O)C8=O)CC6)CC5)CC4)n3)noc21 (stereo not shown) [Compound 156] | < 0.1 | < 0.1 | < 0.1 |  |  |  |
| C#Cc1cccc2cccc(-c3ncc4c(N5CC6CCC(C5)N6)nc(OCCN5CCN(Cc6ccc7c(c6)C(=O)N(C6CCC(=O)NC6=O)C7=O)CC5)nc4c3F)c12 (stereo not shown) [Compound 1, 5-((4-(2-((4-(3,8-diazabicyclo[3.2.1]octan-3-yl)-7-(8-ethynylnaphthalen-1-yl)-8-fluoropyrido[4,3-d]pyrimidin-2-yl)oxy)ethyl)piperazin-1-yl)methyl)-2-(2,6-dioxopiperidin-3-yl) isoindoline-1,3-dione hydrochloride] | > 1 |  |  |  |  |  |
| C#Cc1c(F)ccc2cc(O)cc(-c3nc(OC)c4c(N5CC6CCC(C5)N6C(=O)CCC#N)nc(OCC5(CN6CCC(CN7CCC(N8Cc9cc%10c(cc9C8)C(=O)N(C8CCC(=O)NC8=O)C%10)CC7)CC6)CC5)nc4c3F)c12 (stereo not shown) [Compound 163] | < 0.1 | < 0.1 | < 0.1 |  |  |  |
| C#Cc1c(F)ccc2cc(O)cc(-c3nc(OC)c4c(N5CC6CCC(C5)N6C(=O)CCC#N)nc(OCC5(CN6CCN(CC7CCN(c8ccc9c(N%10CCC(=O)NC%10=O)nn(C)c9c8)CC7)CC6)CC5)nc4c3F)c12 [Compound 159] | < 0.1 | < 0.1 | < 0.1 |  |  |  |
| C#Cc1c(F)ccc2cc(O)cc(-c3nc(OC)c4c(N5CC6CCC(C5)N6C(=O)C[C@@H](C)C#N)nc(OCC5(CN6CCN(CC7CCN(c8ccc9c(c8)CN(C8CCC(=O)NC8=O)C9=O)CC7)CC6)CC5)nc4c3F)c12 (stereo partly shown) [Compound 143] | < 0.1 | < 0.1 | < 0.1 |  |  |  |
| C#Cc1c(F)ccc2cc(O)cc(-c3nc(OC)c4c(N5CCCOCC5)nc(OCC5(CN6CCN(CC7CCN(c8ccc9c(c8)CN(C8CCC(=O)NC8=O)C9=O)CC7)CC6)CC5)nc4c3F)c12 (stereo not shown) [Compound 127] | < 0.1 | < 0.1 | < 0.1 |  |  |  |
| C#Cc1c(F)ccc2cc(O)cc(-c3nc(OC)c4c(N5CC6CCC(C5)N6C(=O)CC(C)C#N)nc(OCC5(CN6CCC(CN7CCC(c8ccc9c(c8)CN(C8CCC(=O)NC8=O)C9=O)C(F)(F)C7)CC6)CC5)nc4c3F)c12 (stereo not shown) [Compound 161] | < 0.1 | < 0.1 | < 0.1 |  |  |  |
| C#Cc1c(F)ccc2cc(O)cc(-c3ncc4c(N5CC6CCC(C5)N6C(=O)CC(C)C#N)nc(OCC5(CN6CC7CC7C6)CC5)nc4c3OCc3ccc(-c4cn([C@H](C(=O)N5C[C@H](O)C[C@H]5C(=O)N[C@@H](CO)c5ccc(-c6ccnn6CC)cc5)C(C)C)nn4)cc3)c12 (stereo partly shown) [Compound 138] |  |  |  | > 1 | > 1 | > 1 |
| C#Cc1c(F)ccc2cc(O)cc(-c3nc(OC)c4c(N5CCCO[C@H]6C[C@H]65)nc(OCC5(CN6CCN(CC7CCN(c8ccc9c(c8)CN(C8CCC(=O)NC8=O)C9=O)CC7)CC6)CC5)nc4c3F)c12 (stereo partly shown) [Compound 164] | < 0.1 | < 0.1 | < 0.1 |  |  |  |
